From patent publication US8778941B2, “TRPM8 antagonists and their use in treatments” (AMGEN Inc., priority 2011, dated 2014)

Target: T1, human TRPM8 (Homo sapiens, UniProt Q7Z2W7)
T1 construct: expressed in transfected cells; host or cells: Chinese hamster ovary (CHO) cells, T-REx tetracycline-inducible expression system (Invitrogen), co-transfected with pcDNA3.1 jellyfish aequorin
Assay: Luminescence readout assay for measuring intracellular calcium (aequorin), hTRPM8 antagonism
Format: cell-based
Conditions: CHO cell line expressing human TRPM8 and aequorin; activation by icilin, L-menthol or cold buffer (table does not say which)
Method: Luminescence Readout Assay for Measuring Intracellular Calcium.
A stable Chinese hamster ovary cell line expressing human TRPM8 was generated using tetracycline inducible T-REx™ expression system from Invitrogen, Inc. (Carlsbad, Calif.). […] Twenty four hours before the assay, cells were seeded in 96-well plates and TRPM8 expression was induced with 0.5 μg/mL tetracycline. […] Potential antagonists were added 2.5 min prior to the addition of agonist, […], 100 µM L-menthol, or 1 min prior to the addition of cold buffer (<10° C.). The luminescence was measured by a CCD camera based FLASH-luminometer built by Amgen, Inc. A cooling device attached to FLASH luminometer was used for cold activation.

T1 sequence (Q7Z2W7 whole entry): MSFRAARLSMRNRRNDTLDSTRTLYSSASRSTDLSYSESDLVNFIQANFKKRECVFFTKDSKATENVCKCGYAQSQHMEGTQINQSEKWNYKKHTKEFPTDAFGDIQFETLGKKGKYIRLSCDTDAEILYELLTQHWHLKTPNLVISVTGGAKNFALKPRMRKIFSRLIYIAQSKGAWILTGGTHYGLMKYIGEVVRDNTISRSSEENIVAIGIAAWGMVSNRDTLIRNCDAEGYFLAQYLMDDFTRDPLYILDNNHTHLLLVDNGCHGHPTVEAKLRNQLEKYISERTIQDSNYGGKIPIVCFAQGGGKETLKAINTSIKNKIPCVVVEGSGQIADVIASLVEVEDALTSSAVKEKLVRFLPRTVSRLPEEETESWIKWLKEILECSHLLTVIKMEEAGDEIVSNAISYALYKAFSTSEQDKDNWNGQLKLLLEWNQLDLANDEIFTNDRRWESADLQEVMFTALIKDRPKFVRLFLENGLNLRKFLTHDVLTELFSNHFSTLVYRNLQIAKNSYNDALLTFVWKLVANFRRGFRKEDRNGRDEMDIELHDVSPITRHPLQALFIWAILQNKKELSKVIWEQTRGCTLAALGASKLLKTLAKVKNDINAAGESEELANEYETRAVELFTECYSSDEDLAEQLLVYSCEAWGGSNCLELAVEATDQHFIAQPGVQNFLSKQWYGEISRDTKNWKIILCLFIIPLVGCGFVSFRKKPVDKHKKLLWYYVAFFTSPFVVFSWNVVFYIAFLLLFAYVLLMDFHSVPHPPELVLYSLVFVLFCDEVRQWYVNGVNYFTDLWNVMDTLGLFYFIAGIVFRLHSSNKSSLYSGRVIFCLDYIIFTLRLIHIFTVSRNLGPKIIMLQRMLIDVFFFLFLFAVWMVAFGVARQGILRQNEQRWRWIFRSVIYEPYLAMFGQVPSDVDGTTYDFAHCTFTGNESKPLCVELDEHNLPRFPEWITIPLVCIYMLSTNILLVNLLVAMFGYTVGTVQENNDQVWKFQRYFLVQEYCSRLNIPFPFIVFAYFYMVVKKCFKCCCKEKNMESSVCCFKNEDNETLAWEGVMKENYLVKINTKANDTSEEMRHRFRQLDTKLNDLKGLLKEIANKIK

Point of comparison: `COC(=O)[C@H](CCSC)NC(=O)N[C@@H](c1ccc(C(F)(F)F)cc1)c1ncccc1C(F)(F)F` [Example 78, (S)-methyl 4-(methylthio)-2-(3-((S)-(4-(trifluoro-methyl)-phenyl)(3-(trifluoro-methyl)-pyridin-2-yl)-methyl)-ureido)-butanoate (2,2,2-trifluoro-acetate)], IC50 1230 nM. Against it:
- O=C(Nc1cccnc1)N[C@@H](c1ccc(Cl)c(Cl)c1)c1ncccc1C(F)(F)F [Example 13, (S)-1-((3,4-dichlorophenyl) (3-(trifluoro-methyl)-pyridin-2-yl)-methyl)-3-(pyridin-3-yl)-urea] — 24-fold lower, 51 nM
- O=C(NC(=O)c1ccccc1)N[C@@H](c1ccc(C(F)(F)F)cc1)c1ncccc1C(F)(F)F [Example 67, (S)-N-((4-(trifluoro-methyl)-phenyl)(3-(trifluoro-methyl)-pyridin-2-yl)-methylcarbamoyl) benzamide (2,2,2-trifluoro-acetate)] — 3.5-fold lower, 352 nM
- COc1ccc2cc([C@H](NC(=O)Nc3cccnc3)c3ncccc3C(F)(F)F)cnc2c1 [Example 18, (S)-1-((7-methoxy-quinolin-3-yl)-(3-(trifluoro-methyl)-pyridin-2-yl)-methyl)-3-(pyridin-3-yl)-urea] — 4-fold lower, 308 nM
- CC(C)(C)NC(=S)N[C@@H](c1ccc(C(F)(F)F)cc1)c1ncccc1C(F)(F)F [Example 123, (S)-1-tert-butyl-3-((4-(trifluoro-methyl)-phenyl)(3-(trifluoro-methyl)-pyridin-2-yl)-methyl)-thiourea] — 6.5-fold lower, 190 nM
- CCOC(=O)CCCNC(=O)N[C@@H](c1ccc(C(F)(F)F)cc1)c1ncccc1C(F)(F)F [Example 68, (S)-ethyl 4-(3-((4-(trifluoro-methyl)-phenyl)(3-(trifluoro-methyl)-pyridin-2-yl)-methyl)-ureido)-butanoate (2,2,2-trifluoro-acetate)] — within 1.5-fold, 881 nM
- CC(C)(C)Cc1cccnc1[C@@H](NC(=O)Nc1cccnc1)c1ccc(C(F)(F)F)cc1 [Example 62] — 1.6-fold higher, 1930 nM
- O=C(Nc1ccc2occc2c1)N[C@@H](c1ccc(C(F)(F)F)cc1)c1ncccc1C(F)(F)F [Example 39, (S)-1-(benzofuran-5-yl)-3-((4-(trifluoro-methyl)-phenyl)(3-(trifluoro-methyl)-pyridin-2-yl)-methyl)urea (2,2,2-trifluoro-acetate)] — 3.3-fold higher, 4090 nM
- CC(C)(C)NC(=O)N[C@@H](c1ccc(C(F)(F)F)cc1)c1ncccc1C(F)(F)F [Example 45, (S)-1-(tert-butyl)-3-((4-(trifluoro-methyl)-phenyl)(3-(trifluoro-methyl)-pyridin-2-yl)-methyl)urea] — 23-fold lower, 53 nM
- CCOC(=O)C(NC(=O)N[C@@H](c1ccc(C(F)(F)F)cc1)c1ncccc1C(F)(F)F)C(C)C (stereo partly drawn) [Example 98, ethyl 3-methyl-2-(3-((S)-(4-(trifluoro-methyl)-phenyl)(3-(trifluoro-methyl)-pyridin-2-yl)-methyl)-ureido)-butanoate (2,2,2-trifluoro-acetate)] — 1.8-fold higher, 2220 nM
- COc1ccc(CCNC(=O)N[C@@H](c2ccc(C(F)(F)F)cc2)c2ncccc2C(F)(F)F)cc1OC [Example 95, (S)-1-(3,4-dimethoxy-phenethyl)-3-((4-(trifluoro-methyl)-phenyl)(3-(trifluoro-methyl)-pyridin-2-yl)-methyyl)urea (2,2,2-trifluoro-acetate)] — 1.6-fold higher, 1920 nM
- O=C(Nc1cccnc1)N[C@@H](c1ccc(C(F)(F)F)cc1)c1cnccc1C(F)(F)F [Example 119, (S)-1-(pyridin-3-yl)-3-((4-(trifluoro-methyl)-phenyl)(4-(trifluoro-methyl)-pyridin-3-yl)-methyl)urea bis(2,2,2-trifluoro-acetate)] — 3.3-fold lower, 375 nM
- O=C(N[C@@H](c1ccc(OC(F)(F)F)c(F)c1)c1ncccc1F)OC1CCOCC1 [Example 176, (S)-tetrahydro-2H-pyran-4-yl ((3-fluoro-4-(trifluoromethoxy)phenyl)(3-fluoropyridin-2-yl)methyl)carbamate] — 5.8-fold lower, 211 nM
- Cc1ccc(F)c(NC(=O)N[C@@H](c2ccc(C(F)(F)F)cc2)c2ncccc2C(F)(F)F)c1 [Example 146, (S)-1-(2-fluoro-5-methylphenyl)-3-((4-(trifluoro-methyl)-phenyl)(3-(trifluoro-methyl)-pyridin-2-yl)-methyl)urea (2,2,2-trifluoro-acetate)] — 3.1-fold higher, 3770 nM
- COC(=O)[C@H](C)NC(=O)N[C@@H](c1ccc(C(F)(F)F)cc1)c1ncccc1C(F)(F)F [Example 79, (S)-methyl-2-(3-((S)-(4-(trifluoro-methyl)-phenyl)(3-(trifluoro-methyl)-pyridin-2-yl)-methyl)-ureido)-propanoate (2,2,2-trifluoro-acetate)] — within 1.5-fold, 1500 nM
- Cc1cccc(C(C)C)c1NC(=O)N[C@@H](c1ccc(C(F)(F)F)cc1)c1ncccc1C(F)(F)F [Example 92, (S)-1-(2-isopropyl-6-methylphenyl)-3-((4-(trifluoro-methyl)-phenyl)(3-(trifluoro-methyl)-pyridin-2-yl)-methyl)urea (2,2,2-trifluoro-acetate)] — 1.7-fold lower, 713 nM
- O=C(Nc1cccnc1)N[C@@H](c1ccc(C(F)(F)F)cc1)c1ccccn1 [Example 30, (S)-1-(pyridin-2-yl(4-(trifluoro-methyl)-phenyl)-methyl)-3-(pyridin-3-yl)-urea] — 13-fold lower, 97 nM
- O=C(Nc1ccc(C(=O)O)cc1)N[C@@H](c1ccc(OC(F)(F)F)c(F)c1)c1ncccc1F [Example 180, (S)-4-(3-((3-Fluoro-4-(trifluoromethoxy)phenyl)(3-fluoropyridin-2-yl)methyl)ureido)benzoic acid] — 2.6-fold higher, 3240 nM
- COC(=O)[C@@H](NC(=O)N[C@@H](c1ccc(C(F)(F)F)cc1)c1ncccc1C(F)(F)F)C(C)C [Example 96, (S)-methyl 3-(methyl-2-(3-((S)-(4-(trifluoro-methyl)-phenyl)(3-(trifluoro-methyl)-pyridin-2-yl)-methyl)-ureido)-butanoate (2,2,2-trifluoro-acetate)] — within 1.5-fold, 884 nM
- CS(=O)(=O)c1cccc(NC(=O)N[C@@H](c2ccc(C(F)(F)F)cc2)c2ncccc2C(F)(F)F)c1 [Example 53, (S)-1-(3-(methylsulfonyl)phenyl)-3-((4-(trifluoro-methyl)-phenyl)(3-(trifluoro-methyl)-pyridin-2-yl)-methyl)urea] — 25-fold lower, 50 nM
- CCOc1cccc(NC(=O)N[C@@H](c2ccc(C(F)(F)F)cc2)c2ncccc2C(F)(F)F)c1 [Example 126, (S)-1-(3-ethoxyphenyl)-3-((4-(trifluoro-methyl)-phenyl)(3-(trifluoro-methyl)-pyridin-2-yl)-methyl)urea (2,2,2-trifluoro-acetate)] — 2.6-fold higher, 3140 nM
- O=C(Nc1cccnc1)N[C@@H](c1ccc2ncccc2c1)c1ncccc1C(F)(F)F [Example 17, (S)-1-(pyridin-3-yl)-3-(quinolin-6-yl(3-(trifluoro-methyl)-pyridin-2-yl)-methyl)urea] — 1.5-fold lower, 811 nM
- Cc1ccccc1CNC(=O)N[C@@H](c1ccc(C(F)(F)F)cc1)c1ncccc1C(F)(F)F [Example 85, (S)-1-(2-methylbenzyl)-3-((4-(trifluoro-methyl)-phenyl)(3-(trifluoro-methyl)-pyridin-2-yl)-methyl)urea (2,2,2-trifluoro-acetate)] — 3-fold lower, 405 nM
